Experimental data: PMC10089289, “Well-Defined Heparin Mimetics Can Inhibit Binding of the Trimeric Spike of SARS-CoV-2 in a Length-Dependent Manner” (JACS Au, 2023)

How the values were obtained:
[1] = biological target: trimeric spike glycoprotein of SARS-CoV-2; assay: SPR competition assay: binding of SARS-CoV-2 spike trimer to heparin-immobilized sensor chip; settings: 100 nM spike trimer, 25 °C, read-out: IC50, inhibition of binding of spike trimer to immobilized heparin (50% reduction in RUs)
[2] = biological target: SARS-CoV-2 Wuhan RBD binding to Vero E6 cells (Severe acute respiratory syndrome coronavirus 2, UniProt P0DTC2); assay type: cell-based
[3] = biological target: T1, antithrombin-III (AT-III) (Homo sapiens, UniProt P01008); assay: SPR competition assay: binding of AT-III to heparin chip; settings: 100 nM AT-III, 100 to 0.001 μg/mL
T1 construct: purchased Haematologic technologies
Excerpt: (§1) A competition SPR method[32]−[34] was employed to examine the binding of compounds 1 and 6 to AT-III and PF4, and the results were compared to similar properties of UFH. First, biotinylated heparin was immobilized on a streptavidin-coated sensor chip, which was employed to establish equilibrium dissociation constants (KD) of AT-III and PF4 by employing different concentrations of these proteins as analytes (Figure S9). […] The determined KD values are in close agreement with literature reports.[34]−[36] Next, inhibition experiments were performed by premixing different concentrations of monovalent 1, tetravalent 6, and UFH with AT-III or PF4 followed by exposure to the sensor chip modified by heparin. […] The fact that tetravalent 6 does bind to PF4 supports the notion that it is a mimetic of heparin.
(§2) 6. Coagulation-related proteins SPR binding and competition studies
(§3) Coagulation-related proteins SPR binding studies: Human antithrombin-III (AT-III) was obtained from Haematologic technologies. […] Using Biacore T100 evaluation software, AT-III equilibrium dissociation constant (KD) was determined by fitting binding curves to two-state reaction model built in Biacore T100 evaluation software. For PF-4, steady-state affinity analysis was performed on the response curves of various PF-4 concentrations and KD value was calculated (Figure S9). […]

platelet factor 4 (PF4) = biological target: T2, platelet factor 4 (PF4) (Homo sapiens, UniProt P02776); assay: SPR competition assay: binding of PF4 to heparin chip; settings: 100 nM PF-4, 100 to 0.001 μg/mL
T2 construct: purchased Sino Biological, Inc
Excerpt: as §1, §2, §3

Factor-Xa = assay: AT-III mediated Factor-Xa inhibition assay (Biophen Anti-Xa, two-stage chromogenic); assay type: biochemical, bovine; settings: colorimetric, Biophen Anti-Xa kit
Protocol: (§4) To validate the SPR results, AT-III-mediated anti-Factor-Xa and anti-Factor-IIa activities of the mimetics and UFH were measured using a colorimetric assay (Biophen Anti-Xa and Anti-IIa kits, two-stage chromogenic assays) (Figures 6B and S16–S17).
(§5) AT-III mediated Factor-IIa inhibition assays: Anti-Factor IIa activity of mimetics (1 and 6) and UFH was determined by BIOPHENÔ ANTI-IIa (2 Stages Heparin Assay) kit following manufacturer’s instructions. Human antithrombin (AT-III), purified human thrombin (Factor IIa) and thrombin specific chromogenic substrate [CS-01(38)] were reconstituted and prepared in specific buffers in accordance with kit protocol. […] After exactly 2 min, the reaction was stopped by introducing citric acid (2 wt.%, 80 µL), mixed and absorbance at 405 nm (POLARstar Optima, BMG Labtech) against the corresponding blank was measured. […] Measured blank value were subtracted from the absorbance measured for the corresponding test. The IC50 values (Figures S16) were calculated using dose-response equations [nonlinear regression, log(inhibitor) vs. response-variable slope (four parameters)] built in Prism software 9 (GraphPad Software, Inc.). […]
(§6) AT-III mediated Factor-Xa inhibition assays: Anti-Factor Xa activity of mimetics (1 and 6) and UFH was determined by BIOPHENÔ ANTI-Xa (2 Stages Heparin Assay) kit following manufacturer’s instructions. […]

Factor-IIa (thrombin) = biological target: T3, Factor-IIa (thrombin) (Homo sapiens, UniProt P00734); assay: AT-III mediated Factor-IIa inhibition assay (Biophen Anti-IIa, two-stage chromogenic); assay type: biochemical; settings: colorimetric, Biophen Anti-IIa kit
T3 construct: purchased BIOPHEN ANTI-IIa (2 Stages Heparin Assay) kit
Protocol: as §4, §5, §6

Vero E6 cells = settings: 100 μg/mL; 24 h incubation

T2 sequence (P02776 32-101): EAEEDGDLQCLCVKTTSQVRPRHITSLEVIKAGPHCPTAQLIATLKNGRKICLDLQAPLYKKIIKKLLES
T1 sequence (P01008 33-464): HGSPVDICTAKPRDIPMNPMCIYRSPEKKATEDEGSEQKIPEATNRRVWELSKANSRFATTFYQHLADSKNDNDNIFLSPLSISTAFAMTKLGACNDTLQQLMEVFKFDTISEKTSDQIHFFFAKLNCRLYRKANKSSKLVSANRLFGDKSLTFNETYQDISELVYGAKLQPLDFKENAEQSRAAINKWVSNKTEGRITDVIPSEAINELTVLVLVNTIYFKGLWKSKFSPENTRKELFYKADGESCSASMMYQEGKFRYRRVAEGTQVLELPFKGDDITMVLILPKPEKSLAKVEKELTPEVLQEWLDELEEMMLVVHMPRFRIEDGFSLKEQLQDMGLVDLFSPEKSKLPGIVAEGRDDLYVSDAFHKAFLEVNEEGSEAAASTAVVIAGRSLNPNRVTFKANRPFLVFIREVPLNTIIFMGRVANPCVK

`NCCCCCOC1OC(COS(=O)(=O)O)C(OC2OC(C(=O)O)C(OC3OC(COS(=O)(=O)O)C(OC4OC(C(=O)O)C(OC5OC(COS(=O)(=O)O)C(OC6OC(C(=O)O)C(O)C(O)C6O)C(O)C5NS(=O)(=O)O)C(O)C4OS(=O)(=O)O)C(O)C3NS(=O)(=O)O)C(O)C2OS(=O)(=O)O)C(O)C1NS(=O)(=O)O` (stereo not drawn) [Compound 1, GlcA-GlcNS6S-IdoA2S-GlcNS6S-IdoA2S-GlcNS6S] was tested, and the IC50 [1] was over 50 µM, the “Inhibition of trimeric RBD binding to Vero E6 cells” value ([2]; 125 μg/mL (62.6 μM), RBDs from Wuhan and delta) was “failed to invoke substantial inhibition” and the “Inhibition of Wuhan RBD binding to Vero E6 cells” value ([2]; RBD pretreated with 10 and 125 μg/mL compound) was “no inhibition was detected”. For the same compound, the “IC50, inhibition of AT-III binding to heparin surface” value [3] was “no inhibitory potential”, the “IC50, inhibition of PF4 binding to heparin surface” value (platelet factor 4 (PF4)) was “no inhibition was observed” and the “IC50, AT-III-mediated inhibition of Factor-Xa” value (Factor-Xa) was 70 µg/mL. The “IC50, AT-III-mediated inhibition of Factor-IIa” value (Factor-IIa (thrombin)) was “failed to invoke any inhibition” and the “Cytotoxicity on Vero E6 cells” value (Vero E6 cells) was “no toxicity”.

For `CC(=O)NC1C(OC2C(C(=O)O)OC(OC3C(COS(=O)(=O)O)OC(OC4C(C(=O)O)OC(OC5C(COS(=O)(=O)O)OC(OC6C(C(=O)O)OC(OC7C(COS(=O)(=O)O)OC(OCCCCCN)C(NS(=O)(=O)O)C7O)C(OS(=O)(=O)O)C6O)C(NS(=O)(=O)O)C5O)C(OS(=O)(=O)O)C4O)C(NS(=O)(=O)O)C3O)C(O)C2O)OC(Cn2cc(CCC(=O)NCCCCCOC3OC(COS(=O)(=O)O)C(OC4OC(C(=O)O)C(OC5OC(COS(=O)(=O)O)C(OC6OC(C(=O)O)C(OC7OC(COS(=O)(=O)O)C(OC8OC(C(=O)O)C(O)C(O)C8O)C(O)C7NS(=O)(=O)O)C(O)C6OS(=O)(=O)O)C(O)C5NS(=O)(=O)O)C(O)C4OS(=O)(=O)O)C(O)C3NS(=O)(=O)O)nn2)C(O)C1O` (stereo not drawn) [Compound 4], the IC50 [1] was over 10 µM.
